Results on 27 compounds are retold here after patent US10246442B2, “4-Aminoquinazolin compounds as prolyl hydroxylase inhibitors” (JANSSEN PHARMACEUTICA NV, priority 2011, dated 2019).

Experiment [1] concerns the target PHD2181-417 (Homo sapiens (Human), UniProt Q9GZT9). The experiment can be described thus: PHD enzymatic assay ([14C]-succinic acid production). It counts as biochemical. The conditions noted are these: purified PHD2181-417, HIF-1α peptide substrate, 30 min pre-incubation; average of results. Put shortly:
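Recombinant human PHD2 (aa 181-417, E. coli-expressed, tags cleaved) with peptide substrate (10 μM) and [5-14C]-2-oxoglutarate in Tris pH 7.5 with catalase, DTT and ascorbate, 10 min reaction after 30 min compound pre-incubation; compounds at 100 μM final, 1% DMSO. [14C]-succinate separated by DNP precipitation and beta-counted; IC50 from three-parameter logistic fit.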

The test system of experiment [2] is HIF1-α, Hela cells. The experiment can be described thus: Cellular assay for HIF1-α in Hela cells. It counts as cell-based. Particulars: Homo sapiens, 100 μM compound, 6 hours, percent of HIF stimulation relative to assay control compound 7-[(4-Chloro-phenyl)-(5-methyl-isoxazol-3-ylamino)-methyl]-quinolin-8-ol. As to the method:
Cellular Assay for HIF1-α
Hela cells (ATCC, Manassas, Va.) were plated in 96-well plates at 20,000 cells per well in 100 μl of DMEM containing 10% fetal bovine serum, 1% non-essential amino acids, 50 IU/mL of penicillin and 50 μg/mL of streptomycin (all cell culture reagents from Invitrogen, Carlsbad, Calif.). 24 hours after plating, changed media to 100 ul of DMEM without 10% fetal bovine serum, 1.1 μl of the stock solution for each compound was added and incubated for 6 hours. All compounds were tested with a final compound concentration of 100 μM. The supernatant was removed and the cells were lysed in 55 μl of MSD lysis buffer containing protease inhibitors. 50 μl of the cell lysate was then transferred to a blocked MSD human HIF-1α detection plate (Meso-Scale Discovery, Gaithersburg, Md., as per manufacturers protocol), and incubated at room temperature on an orbital shaker for 2 hour. After 3 washes in PBS, 25 μl of 20 nM anti-HIF1α a detection antibody was added and incubated for 1 hour at room temperature on an orbital shaker. After 3 washes in PBS, 150 μl of 1× read buffer was added and the plate was then read on a MSD SECTOR instrument. Data was analyzed by determining the percent of HIF stimulation in the presence of 100 μM compound relative to an assay control compound, 7-[(4-Chloro-phenyl)-(5-methyl-isoxazol-3-ylamino)-methyl]-quinolin-8-ol.

Chain of PHD2181-417 (Q9GZT9 181-417): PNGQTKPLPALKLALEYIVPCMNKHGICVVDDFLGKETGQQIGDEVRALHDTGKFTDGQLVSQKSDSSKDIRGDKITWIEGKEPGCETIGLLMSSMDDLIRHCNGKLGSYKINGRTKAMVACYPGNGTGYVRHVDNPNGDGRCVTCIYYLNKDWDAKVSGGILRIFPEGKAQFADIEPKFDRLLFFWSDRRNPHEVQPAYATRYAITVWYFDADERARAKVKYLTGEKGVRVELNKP

Regarding `Cc1cccc(C)c1Oc1cc2c(N3CCCN(C)CC3)nc(-n3cc(C(=O)O)cn3)nc2cc1F` [Example 17, 1-(6-(2,6-Dimethylphenoxy)-7-fluoro-4-(4-methyl-1,4-diazepan-1-yl)quinazolin-2-yl)-1H-pyrazole-4-carboxylic acid], the “Enzyme pIC50” value in experiment [1] turned out to be 6.7. The activation at 100 µM in experiment [2] stood at 47%.
Take `Cc1cccc(C)c1Oc1cc2c(N3CCSCC3)nc(-n3cc(C(=O)O)cn3)nc2cc1F` [Example 18, 1-(6-(2,6-Dimethylphenoxy)-7-fluoro-4-thiomorpholinoquinazolin-2-yl)-1H-pyrazole-4-carboxylic acid]: the “Enzyme pIC50” value in experiment [1] turned out to be 7.0. In experiment [2], this compound had an activation at 100 µM of 15%.
The matching figures for `Cc1cccc(C)c1Oc1cc2c(N3CCC(O)CC3)nc(-n3cc(C(=O)O)cn3)nc2cc1F` [Example 19, 1-(6-(2,6-Dimethylphenoxy)-7-fluoro-4-(4-hydroxypiperidin-1-yl)quinazolin-2-yl)-1H-pyrazole-4-carboxylic acid]: 6.9 and 140%.
The matching figures for `CC(=O)NC1CCN(c2nc(-n3cc(C(=O)O)cn3)nc3cc(F)c(Oc4c(C)cccc4C)cc23)CC1` [Example 21, 1-(4-(4-Acetamidopiperidin-1-yl)-6-(2,6-dimethylphenoxy)-7-fluoroquinazolin-2-yl)-1H-pyrazole-4-carboxylic acid]: 6.9 and 62%.
Regarding `O=C(O)c1cnn(-c2nc(Nc3ccccc3Cl)c3cc(C4CCCCC4)ccc3n2)c1` [Example 29, 1-(4-((2-Chlorophenyl)amino)-6-cyclohexylquinazolin-2-yl)-1H-pyrazole-4-carboxylic acid], in experiment [1], the “Enzyme pIC50” value was found to be 7.1. In experiment [2], this compound showed an activation at 100 µM of 7.8%.
The matching figures for `N#CC1CCN(c2nc(-n3cc(C(=O)O)cn3)nc3ccc(C4CCCCC4)cc23)CC1` [Example 30, 1-(4-(4-Cyanopiperidin-1-yl)-6-cyclohexylquinazolin-2-yl)-1H-pyrazole-4-carboxylic acid]: 6.9 and 77%.
The matching figures for `O=C(O)c1cnn(-c2nc(N3CCC(F)CC3)c3cc(C4CCCCC4)ccc3n2)c1` [Example 31, 1-(6-Cyclohexyl-4-(4-fluoropiperidin-1-yl)quinazolin-2-yl)-1H-pyrazole-4-carboxylic acid]: 7.1 and 34%.
The matching figures for `CC(C)(C)Nc1nc(-n2cc(C(=O)O)cn2)nc2ccc(C3CCCCC3)cc12` [Example 36, 1-(4-(tert-Butylamino)-6-cyclohexylquinazolin-2-yl)-1H-pyrazole-4-carboxylic acid]: 6.8 and 23%.
Turning to `O=C(O)c1cnn(-c2nc(NCC3CCCCC3)c3cc(C4CCCCC4)ccc3n2)c1` [Example 39, 1-(6-Cyclohexyl-4-((cyclohexylmethyl)amino)quinazolin-2-yl)-1H-pyrazole-4-carboxylic acid], the “Enzyme pIC50” value in experiment [1] is given as 6.9. In addition, in experiment [2], the activation at 100 µM worked out at 6.1%.
The matching figures for `CS(=O)(=O)Nc1nc(-n2cc(C(=O)O)cn2)nc2ccc(C3CCCCC3)cc12` [Example 40, 1-(6-Cyclohexyl-4-(methylsulfonamido)quinazolin-2-yl)-1H-pyrazole-4-carboxylic acid]: 6.6 and 6.7%.
The matching figures for `O=C(O)c1cnn(-c2nc(N3CCCC3)c3cc(-c4ccccc4)ccc3n2)c1` [Example 43, 1-(6-Phenyl-4-(pyrrolidin-1-yl)quinazolin-2-yl)-1H-pyrazole-4-carboxylic acid]: 7.3 and 57%.
Take `O=C(O)c1cnn(-c2nc(Nc3ccccc3)c3cc(-c4ccccc4)ccc3n2)c1` [Example 44, 1-(6-Phenyl-4-(phenylamino)quinazolin-2-yl)-1H-pyrazole-4-carboxylic acid]: in experiment [1], the “Enzyme pIC50” value turned out to be 7.1. This compound yielded an activation at 100 µM in experiment [2] of 22%.
The matching figures for `O=C(O)c1cnn(-c2nc(Nc3ccccc3Cl)c3cc(-c4ccccc4)ccc3n2)c1` [Example 47, 1-(4-((2-Chlorophenyl)amino)-6-phenylquinazolin-2-yl)-1H-pyrazole-4-carboxylic acid]: 6.6 and 10%.
The matching figures for `O=C(O)c1cnn(-c2nc(N3CCCCCC3)c3cc(-c4ccccc4)ccc3n2)c1` [Example 48, 1-(4-(Azepan-1-yl)-6-phenylquinazolin-2-yl)-1H-pyrazole-4-carboxylic acid]: 7.2 and 23%.
Take `O=C(O)c1cnn(-c2nc(NCC3CCCCC3)c3cc(-c4ccccc4)ccc3n2)c1` [Example 49, 1-(4-((Cyclohexylmethyl)amino)-6-phenylquinazolin-2-yl)-1H-pyrazole-4-carboxylic acid]: the “Enzyme pIC50” value in experiment [1] is reported as 6.9. The compound further gave an activation at 100 µM in experiment [2] of 3.8%.
The matching figures for `N#CNc1nc(-n2cc(C(=O)O)cn2)nc2ccc(-c3ccccc3)cc12` [Example 50, 1-(4-Cyanamido-6-phenylquinazolin-2-yl)-1H-pyrazole-4-carboxylic acid]: 7.1 and 9.6%.
The matching figures for `O=C(O)c1cnn(-c2nc(NC3CC3)c3cc(-c4ccccc4)ccc3n2)c1` [Example 51, 1-(4-(Cyclopropylamino)-6-phenylquinazolin-2-yl)-1H-pyrazole-4-carboxylic acid]: 6.5 and 40%.
The matching figures for `CC(C)(C)Nc1nc(-n2cc(C(=O)O)cn2)nc2ccc(-c3ccccc3)cc12` [Example 52, 1-(4-(tert-Butylamino)-6-phenylquinazolin-2-yl)-1H-pyrazole-4-carboxylic acid]: 6.5 and 37%.
Take `Nc1nc(-n2cc(C(=O)O)cn2)nc2ccc(-c3ccccc3)cc12` [Example 53, 1-(4-Amino-6-phenylquinazolin-2-yl)-1H-pyrazole-4-carboxylic acid]: the “Enzyme pIC50” value in experiment [1] is on record as 7.0. The compound further registered an activation at 100 µM in experiment [2] of 16%.
The matching figures for `CC(=O)NC1CCN(c2nc(-n3cc(C(=O)O)cn3)nc3ccc(-c4ccccc4)cc23)CC1` [Example 55, 1-(4-(4-Acetamidopiperidin-1-yl)-6-phenylquinazolin-2-yl)-1H-pyrazole-4-carboxylic acid]: 6.7 and 28%.
Take `O=C(O)c1cnn(-c2nc(NC3CCOCC3)c3cc(-c4ccccc4)ccc3n2)c1` [Example 56, 1-(6-Phenyl-4-((tetrahydro-2H-pyran-4-yl)amino)quinazolin-2-yl)-1H-pyrazole-4-carboxylic acid]: the “Enzyme pIC50” value in experiment [1] is listed as 6.2. This compound registered an activation at 100 µM in experiment [2] of 25%.
The matching figures for `CN1CCCN(c2nc(-n3cc(C(=O)O)cn3)nc3ccc(-c4ccccc4)cc23)CC1` [Example 57, 1-(4-(4-Methyl-1,4-diazepan-1-yl)-6-phenylquinazolin-2-yl)-1H-pyrazole-4-carboxylic acid]: 6.4 and 30%.
The matching figures for `O=C(O)c1cnn(-c2nc(N3CCOCC3)c3cc(-c4ccccc4)ccc3n2)c1` [Example 58, 1-(4-Morpholino-6-phenylquinazolin-2-yl)-1H-pyrazole-4-carboxylic acid]: 6.5 and 49%.
The matching figures for `N#CC1CCN(c2nc(-n3cc(C(=O)O)cn3)nc3ccc(-c4ccccc4)cc23)CC1` [Example 59, 1-(4-(4-Cyanopiperidin-1-yl)-6-phenylquinazolin-2-yl)-1H-pyrazole-4-carboxylic acid]: 6.4 and 45%.
For the compound `O=C(O)c1cnn(-c2nc(NCC3CCCCC3)c3cc(Oc4ccc(Cl)cc4)ccc3n2)c1` [Example 64, 1-(6-(4-Chlorophenoxy)-4-((cyclohexylmethyl)amino)quinazolin-2-yl)-1H-pyrazole-4-carboxylic acid], the “Enzyme pIC50” value in experiment [1] is 7.5. For the same compound, in experiment [2], the activation at 100 µM was found to be 1.5%.
The matching figures for `O=C(O)c1cnn(-c2nc(N3CCCCCC3)c3cc(Oc4ccc(Cl)cc4)ccc3n2)c1` [Example 66, 1-(4-(Azepan-1-yl)-6-(4-chlorophenoxy)quinazolin-2-yl)-1H-pyrazole-4-carboxylic acid]: 7.5 and 14%.
For the compound `O=C(O)c1cnn(-c2nc(N3CCSCC3)c3cc(Oc4ccc(Cl)cc4)ccc3n2)c1` [Example 67, 1-(6-(4-Chlorophenoxy)-4-thiomorpholinoquinazolin-2-yl)-1H-pyrazole-4-carboxylic acid], the “Enzyme pIC50” value in experiment [1] is 7.3. Besides, in experiment [2], the activation at 100 µM was 31%.
